The record followed here is US20090192192A1, “INHIBITORS OF BIOFILM FORMATION OF GRAM-POSITIVE AND GRAM-NEGATIVE BACTERIA” (priority 2007, published 2009).

Bounds are passed on as bounds.

For this test, the system named is Pseudomonas aeruginosa PAO1. Put plainly: MBEC assay, biofilm formation of P. aeruginosa PAO1. It counts as cell-based. The conditions noted are these: compound concentration 100 μM, class symbols. In short, it runs like this:
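Peg-lid biofilms were grown 24 h at 35±2 °C, 110 rpm, from inoculum diluted to ~6.0×10^5 cells per mL in TSB, with compound at 10 μM or 100 μM final (1% DMSO) in 1% Tween 80/CAMHB. Pegs were rinsed, then sonicated 30 min into recovery medium; survivors were spot-plated, and recovery plates were read visually after 24 h; triplicates.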

Usually inhibition stands for the percentage by which the read-out fell short of the control. A low value points to a weak effect.

`CCCCCCCCCCCC(=O)Nc1cc(C)nn1C(C)(C)C` [Example 30, N-(1-tert-butyl-3-methylpyrazol-5-yl)dodecanamide] came in with an inhibition at 100 µM above 50%.

The compound `CCCCCCCCCCNC(=O)Nc1nnc(-c2ccccc2)s1` [Example 77, 1-decyl-3-(5-phenyl-1,3,4-thiadiazol-2-yl)urea] came in with an inhibition at 100 µM below 20%.

With `CCCCCCNC(=O)Nc1cc(C2CC2)nn1C` [Example 42, 1-(3-cyclopropyl-1-methylpyrazol-5-yl)-3-hexylurea], the inhibition at 100 µM fell in the range of 20 to 50%.

As to `CCCCCCCCCCCNC(=O)Nc1cc(-c2ccccc2)nn1C` [Example 82, 1-(1-methyl-3-phenylpyrazol-5-yl)-3-undecylurea], the inhibition at 100 µM is below 20%.

`CCCCCCCN(C)CCCC(=O)N1CCCC(C(=O)N(CC)CC)C1` (stereo not drawn) [Example 138, N,N-diethyl-1-(4-(heptyl(methyl)amino)butanoyl)piperidine-3-carboxamide] gave an inhibition at 100 µM below 20%.

The compound `CCCCCCCCCCNC(=O)Nc1ccnn1CC` [Example 64, 1-decyl-3-(1-ethylpyrazol-5-yl)urea] showed an inhibition at 100 µM of 20 to 50%.

Consider `CCCCCCCCCCCC(=O)N(C)c1ccccc1` [Example 14, N-methyl-N-phenyldodecanamide], for which the inhibition at 100 µM is above 50%.

On to `CCCCCCCCCCCCCCCCNC(=O)Nc1cc(C)nn1C` [Example 89, 1-(1,3-dimethylpyrazol-5-yl)-3-hexadecylurea], for which the inhibition at 100 µM is below 20%.

`CCCCCCCCCC(=O)NC(=O)Nc1cc(C)nn1C` [Example 100, N-(1,3-dimethylpyrazol-5-ylcarbamoyl)decanamide] gave an inhibition at 100 µM of 20 to 50%.

`COCCOCCOCC(=O)Nc1cc(C)nn1C` [Example 128, N-(1,3-dimethylpyrazol-5-yl)-2-(2-(2-methoxyethoxy)ethoxy)acetamide]: the inhibition at 100 µM was below 20%.

Compound `CCCCCCCCCCNC(=O)Nc1ccccc1C(F)(F)F` [Example 57, 1-decyl-3-(2-(trifluoromethyl)phenyl)urea] showed an inhibition at 100 µM of 20 to 50%.

In turn, `CCCCCCCCCCNC(=O)Nc1cc(C)ns1` [Example 62, 1-decyl-3-(3-methylisothiazol-5-yl)urea] gave an inhibition at 100 µM below 20%.

`CCCCCCCCCCCC(=O)N1CCC(C(=O)N(C)C)C1` (stereo not drawn) [Example 147, 1-dodecanoyl-N,N-dimethylpyrrolidine-3-carboxamide] yielded an inhibition at 100 µM above 50%.

In the case of `CCCCCCCCCCCCCCNC(=O)Nc1cc(C(C)(C)C)nn1C` [Example 88, 1-(3-tert-butyl-1-methylpyrazol-5-yl)-3-tetradecylurea], the inhibition at 100 µM was above 50%.

In the case of `CCN(CC)C(=O)C1CCCN(C(=O)CCCCCCCCCNS(C)(=O)=O)C1` (stereo not drawn) [Example 143, N,N-diethyl-1-(10-(methylsulfonamido)decanoyl)piperidine-3-carboxamide], the inhibition at 100 µM was in the range of 20 to 50%.

Compound `CCCCCCCCCCNC(=O)Nc1ccccc1F` [Example 49, 1-decyl-3-(2-fluorophenyl)urea] showed an inhibition at 100 µM below 20%.

Consider `CCCCCCCCCCCNC(=O)Nc1cc(C(C)(C)C)nn1C` [Example 81, 1-(3-tert-butyl-1-methylpyrazol-5-yl)-3-undecylurea], for which the inhibition at 100 µM is above 50%.

In turn, `CCCCCCCCCCNC(=O)/N=c1/cc(-c2ccccc2)n(C)n1C` [Example 73, 1-decyl-3-(1,2-dimethyl-5-phenylpyrazol-3-ylidene)urea] gave an inhibition at 100 µM above 50%.

Regarding `CCCCCCCCCOCC(=O)Nc1cc(C(C)(C)C)nn1C` [Example 107, N-(3-tert-butyl-1-methylpyrazol-5-yl)-2-(nonyloxy)acetamide], the inhibition at 100 µM is above 50%.

The compound `CCCCOCCOCC(=O)Nc1ccc(F)cc1C(F)(F)F` [Example 120, 2-(2-butoxyethoxy)-N-(4-fluoro-2-(trifluoromethyl)phenyl)acetamide] displayed an inhibition at 100 µM of 20 to 50%.

Compound `CCCCCCCCCOCC(=O)N[C@@H](C)c1ccccc1` [Example 104, (S)-2-(nonyloxy)-N-(1-phenylethyl)acetamide] gave an inhibition at 100 µM above 50%.
